What was measured:
RBP4 = RBP4 (Homo sapiens, UniProt P02753); assay: affinity purification, SEC and mass spectrometry lipidomics; assay type: cell-based; settings: in cellulo, HEK293; retinoid form not specified beyond vitamin A
RBP1 = biological target: T1, RBP1 (Homo sapiens, UniProt P09455); assay: as above; assay type: cell-based; settings: in cellulo, HEK293; retinoid form not specified beyond vitamin A
T1 sequence (P09455 1-135): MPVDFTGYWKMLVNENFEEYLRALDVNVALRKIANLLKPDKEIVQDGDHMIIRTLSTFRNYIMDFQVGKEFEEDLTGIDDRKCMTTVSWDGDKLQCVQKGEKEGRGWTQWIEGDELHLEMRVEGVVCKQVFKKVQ

SMILES: CC1=C(/C=C/C(C)=C/C=C/C(C)=C/CO)C(C)(C)CCC1 [vitamin A]
- affinity purification, SEC and mass spectrometry lipidomics (RBP4): RBP1 and RBP4 formed complexes with vitamin A only in the cellular context
- affinity purification, SEC and mass spectrometry lipidomics (RBP1): RBP1 and RBP4 formed complexes with vitamin A only in the cellular context

From PMC12979188, “Systematic analyses of lipid mobilization by human lipid transfer proteins” (Nature, 2026)
